Source: US10131652B2, “Pyrimidinyloxy benzene derivatives as herbicides” (E. I. DU PONT DE NEMOURS AND COMPANY, priority 2014, dated 2018)

What was measured:
Assay type in all cases: in vivo
[1] = tested on: large (Lg) crabgrass (Digitaria sanguinalis); assay: Test B pre-/postemergence plant response; settings: for Crabgrass, Large plant response rating: 0 to 100 scale (0 no effect, 100 complete control)
Outline: (§1)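 Visual injury scores on a 0–100 scale (100 = complete control) relative to untreated plants, taken about 10 days post-treatment in greenhouse. Treatments were a directed preemergence soil spray and a postemergence spray at one- to two-leaf stage, using surfactant-containing solvent formulation.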

[2] = tested on: velvetleaf (Abutilon theophrasti); assay: Test B pre-/postemergence plant response; settings: for Velvetleaf plant response rating: 0 to 100 scale (0 no effect, 100 complete control)
Outline: as §1

[3] = tested on: barnyardgrass (Echinochloa crus-galli); assay: Test B pre-/postemergence plant response; settings: for Barnyardgrass plant response rating: 0 to 100 scale (0 no effect, 100 complete control)
Outline: as §1

corn (Zea mays) = assay: Test B pre-/postemergence plant response; settings: for Corn plant response rating: 0 to 100 scale (0 no effect, 100 complete control)
Outline: as §1

[4] = tested on: wheat (Triticum aestivum); assay: Test B pre-/postemergence plant response; settings: for Wheat plant response rating: 0 to 100 scale (0 no effect, 100 complete control)
Outline: as §1

[5] = tested on: pigweed (Amaranthus retroflexus); assay: Test B pre-/postemergence plant response; settings: for Pigweed plant response rating: 0 to 100 scale (0 no effect, 100 complete control)
Outline: as §1

[6] = tested on: giant foxtail (Setaria faberii); assay: Test B pre-/postemergence plant response; settings: for Foxtail, Giant plant response rating: 0 to 100 scale (0 no effect, 100 complete control)
Outline: as §1

[7] = tested on: morningglory (Ipomoea spp.); assay: Test B pre-/postemergence plant response; settings: for Morningglory plant response rating: 0 to 100 scale (0 no effect, 100 complete control)
Outline: as §1

[8] = tested on: small-flower umbrella sedge (Cyperus difformis); assay: Test C flooded paddy test plant response; settings: Flood, 250 g ai/ha; scale of 0 to 100 where 0 is no effect and 100 is complete control; 13 to 15 days
Outline: (§2)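 Plants grown to 2-leaf stage, flooded 3 cm above soil; compounds applied directly into paddy water, depth kept throughout. Visual rating versus controls after 13 to 15 days in greenhouse, 0 (no effect) to 100 (complete control).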

rice (Oryza sativa) = assay: Test C flooded paddy test plant response; settings: Flood, 250 g ai/ha; scale of 0 to 100 where 0 is no effect and 100 is complete control; 13 to 15 days
Outline: as §2

[9] = tested on: barnyardgrass (Echinochloa crus-galli); assay: Test C flooded paddy test plant response; settings: Flood, 250 g ai/ha; scale of 0 to 100 where 0 is no effect and 100 is complete control; 13 to 15 days
Outline: as §2

[10] = tested on: ducksalad (Heteranthera limosa); assay: Test C flooded paddy test plant response; settings: Flood, 250 g ai/ha; scale of 0 to 100 where 0 is no effect and 100 is complete control; 13 to 15 days
Outline: as §2

[11] = 125 g ai/ha, postemergence, 0 to 100 scale, 0 no effect, 100 complete control
[12] = 500 g ai/ha, postemergence, 0 to 100 scale, 0 no effect, 100 complete control
[13] = Preemergence, 500 g ai/ha, 0 to 100 scale where 0 is no effect and 100 is complete control

Row | Compound | Plant response rating, Crabgrass, Large [1, 11] | Plant response rating, Crabgrass, Large [1, 12] | Crabgrass, Large plant response rating ([1]; Preemergence, 125 g ai/ha) | Plant response rating, Crabgrass, Large [1, 13] | Plant response rating, Velvetleaf [2, 11] | Plant response rating, Velvetleaf [2, 12] | Velvetleaf plant response rating ([2]; Preemergence, 125 g ai/ha) | Plant response rating, Velvetleaf [2, 13] | Plant response rating, Barnyardgrass [3, 11] | Plant response rating, Barnyardgrass [3, 12] | Barnyardgrass plant response rating ([3]; Preemergence, 125 g ai/ha) | Plant response rating, Barnyardgrass [3, 13] | Plant response rating, Corn (corn (Zea mays); [11]) | Plant response rating, Corn (corn (Zea mays); [12]) | Corn plant response rating (corn (Zea mays); Preemergence, 125 g ai/ha) | Plant response rating, Corn (corn (Zea mays); [13]) | Plant response rating, Wheat [4, 11] | Plant response rating, Wheat [4, 12] | Wheat plant response rating ([4]; Preemergence, 125 g ai/ha) | Plant response rating, Wheat [4, 13] | also measured
1 | Clc1ccc(-c2c(I)cccc2Oc2ncc(Cl)cn2)nc1 [Compound 205] | 10 | 20 | 30 | 70 | 0 | 10 | 0 | 0 | 0 | 10 | 0 | 10 | 0 | 10 | 0 | 0 | 0 | 0 | 0 | 0 | Plant response rating, Pigweed [5, 11]: 60; Plant response rating, Pigweed [5, 12]: 90; Pigweed plant response rating ([5]; Preemergence, 125 g ai/ha): 10; Plant response rating, Pigweed [5, 13]: 90; Plant response rating, Foxtail, Giant [6, 11]: 0; Plant response rating, Foxtail, Giant [6, 12]: 20; Foxtail, Giant plant response rating ([6]; Preemergence, 125 g ai/ha): 20; Plant response rating, Foxtail, Giant [6, 13]: 70; Plant response rating, Morningglory [7, 11]: 0; Plant response rating, Morningglory [7, 12]: 10; Morningglory plant response rating ([7]; Preemergence, 125 g ai/ha): 0; Plant response rating, Morningglory [7, 13]: 0; Sedge, Umbrella plant response rating [8]: 0; Rice plant response rating (rice (Oryza sativa)): 0; Barnyardgrass plant response rating [9]: 0; Ducksalad plant response rating [10]: 0
2 | Fc1cnc(Oc2ccccc2-c2cc(C(F)(F)F)on2)nc1 [Compound 206] | 10 | 20 | 10 | 60 | 30 | 60 | 30 | 40 | 0 | 10 | 0 | 30 | 0 | 0 | 0 | 0 | 0 | 0 | 0 | 0 | Plant response rating, Pigweed [5, 11]: 40; Plant response rating, Pigweed [5, 12]: 70; Pigweed plant response rating ([5]; Preemergence, 125 g ai/ha): 50; Plant response rating, Pigweed [5, 13]: 80; Plant response rating, Foxtail, Giant [6, 11]: 0; Plant response rating, Foxtail, Giant [6, 12]: 20; Foxtail, Giant plant response rating ([6]; Preemergence, 125 g ai/ha): 10; Plant response rating, Foxtail, Giant [6, 13]: 60; Plant response rating, Morningglory [7, 11]: 20; Plant response rating, Morningglory [7, 12]: 30; Morningglory plant response rating ([7]; Preemergence, 125 g ai/ha): 0; Plant response rating, Morningglory [7, 13]: 0; Sedge, Umbrella plant response rating [8]: 70; Rice plant response rating (rice (Oryza sativa)): 0; Barnyardgrass plant response rating [9]: 0; Ducksalad plant response rating [10]: 70
3 | N#Cc1cccc(Oc2ncc(F)cn2)c1-c1ccc(Cl)cn1 [Compound 207] | 0 | 30 | 100 | 100 | 10 | 60 | 0 | 30 | 0 | 70 | 10 | 90 | 0 | 0 | 0 | 0 | 0 | 0 | 0 | 0 | Plant response rating, Pigweed [5, 11]: 70; Plant response rating, Pigweed [5, 12]: 100; Pigweed plant response rating ([5]; Preemergence, 125 g ai/ha): 90; Plant response rating, Pigweed [5, 13]: 100; Plant response rating, Foxtail, Giant [6, 11]: 0; Plant response rating, Foxtail, Giant [6, 12]: 30; Foxtail, Giant plant response rating ([6]; Preemergence, 125 g ai/ha): 70; Plant response rating, Foxtail, Giant [6, 13]: 100; Plant response rating, Morningglory [7, 11]: 10; Plant response rating, Morningglory [7, 12]: 30; Morningglory plant response rating ([7]; Preemergence, 125 g ai/ha): 0; Plant response rating, Morningglory [7, 13]: 30; Sedge, Umbrella plant response rating [8]: 30; Rice plant response rating (rice (Oryza sativa)): 0; Barnyardgrass plant response rating [9]: 0; Ducksalad plant response rating [10]: 30
